From patent US20110027354A1, “ANTI-PA[…]” (priority 2008, published 2011) come the findings set out here.

The test system of data set [1] is mice. The data set can be described thus: Locomotor activity after repeated treatment with drug alone. Particulars: repeated treatment i.p./day×7, selegiline or MPPE 2.5 or 5.0 mg/kg, MA 0.5 or 1.0 mg/kg. The data set is classed as in vivo. The protocol: Selegiline or […] was injected (2.5 or 5 mg/kg, i.p.) once a day for 7 consecutive days. Methamphetamine, a positive control, was also administered (0.5 or 1 mg/kg, i.p.) once a day for 7 days.
Locomotor activity measured for 30 min one day after the last MPTP administration using an automated video-tracking system (Noldus Information Technology, Wagenin, The Netherlands). Eight test boxes (40×40×30 cm high) were operated simultaneously by an IBM computer. Animals were studied individually during locomotion in each test box, where they were adapted for 5 min before starting the experiment. […] The distance traveled in cm by the animals in horizontal locomotor activity was analyzed. Data were collected and analyzed between 09:00 and 17:00 h (Kim et al., 2001).

Data set [2] concerns mice. The data set can be described thus: Conditioned place preference (CPP). The following applies: selegiline or MPPE 2.5 or 5.0 mg/kg i.p., MA 0.5 or 1.0 mg/kg i.p.; vs. saline. The data set is classed as in vivo. The method, then:
For conditioned place preference (CPP) test, mice received an i.p. injection of saline just before entering the […] compartment. MA (0.5 or 1.0 mg/kg, i.p.), selegiline (2.5 or 5.0 mg/kg, i.p.), and MPPE (2.5 or 5.0 mg/kg, i.p.) dissolved in saline was administered immediately before the mice were placed in the white compartment. On day 1, the mice were pre-exposed to the test apparatus for 15 minutes. The guillotine style doors were raised and mice were allowed to move freely between the two compartments. On day 2, the time each mouse spent in each compartment was recorded for 15 minutes. On days 3, 5, 7, 9, 11, and 13, the mice were injected with each drug before being confined to the white compartment, the non-preferred side, for 40 minutes. On day 14, the guillotine doors were raised. The mice were initially placed in the tunnel and the time spent by the mice in the two compartments was recorded for 15 minutes. The scores were calculated from the differences in the time spent in the white compartment in the testing and pre-testing phases. Data were analyzed between 09:00 and 17:00 hours.

With `CN[C@@H](C)Cc1ccccc1` [MA, methamphetamine], in the data set with mice [1], the locomotor patterns entry was “typical circling locomotor patterns”. In addition, the locomotor activities result in the data set on mice [1] (vs. saline) was “significantly increased”. In the data set with mice [2], the “conditioned place preference (CPP)” value was “significantly increased compared with saline”.
